Results from US8148428B2 (priority 2006, dated 2012).
Like-named read-outs stand apart in the source and are kept apart here.

Assays:
[1] = system: Lassa GP-pseudotyped-virus; assay: microbe, parasite or virus in culture; type: cell-based, Lassa fever virus; set-up: Activity against Lassa GP-pseudotyped-virus specificity: reference not given here
[2] = system: Lassa fever virus (Josiah strain); assay: organism not typed; type: cell-based; conditions: for EC50: read-out: Activity vs. LFV EC50
[3] = system: Guanarito envelope pseudotyped virus; assay: organism not typed; type: cell-based; conditions: read-out: EC50, pseudotyped viral infection, Guanarito envelope
[4] = system: Tacaribe envelope pseudotyped virus; assay: organism not typed; type: cell-based; conditions: read-out: EC50, pseudotyped viral infection, Tacaribe envelope
[5] = Human immunodeficiency virus 1, read-out: Activity against Lassa GP-pseudotyped-virus EC50

| SMILES | Activity against Lassa GP-pseudotyped-virus specificity [1] | EC50 [1, 5] | further results |
| --- | --- | --- | --- |
| C/C(=N\NC(=O)C1CC1c1ccccc1)c1ccc(-c2ccccc2)cc1 (stereo not drawn) [Compound 600152, 2-Phenyl-cyclopropanecarboxylic acid [1-biphenyl-4-yl-eth-(E)-ylidene]-hydrazide] | >8000 | 1 nM | – |
| CC(C)/C(=N\NC(=O)C1CC1c1ccccc1)c1ccccc1 (stereo not drawn) [Compound 600123] | 60 | – | EC50 ([1]; read-out: Activity against Lassa GP-pseudotyped-virus EC50): 200 nM |
| C/C(=N/NC(=O)C1CC1c1ccccc1)c1ccc(NC(=O)c2ccc(Cl)cc2Cl)cc1 (stereo not drawn) [Compound 600162, 2,4-Dichloro-N-(4-[1-[(2-Phenyl-cyclopropanecarbonyl)-hydrazono]ethyl]-phenyl)-benzamide] | >4000 | < 3 nM | – |
| COc1ccc(/C(C)=N/NC(=O)C2CC2c2ccccc2)cc1OC (stereo not drawn) [Compound 600154, 2-Phenyl-cyctopropanecarboxylic acid [1-(3,4-dimethoxy-phenyl)-eth-(E)-ylidene]-hydrazide] | >50 | 200 nM | – |
| CCOC(=O)C/C(C)=N/NC(=O)C1CC1c1ccccc1 (stereo not drawn) [Compound 600091, 3-[(2-Phenyl-cyclopropanecarbonyl)-hydrazono]-butyric acid ethyl ester] | >18 | 1600 nM | – |
| C/C(=N\NC(=O)C1CC1c1ccccc1)c1ccc(C)cc1 (stereo not drawn) [Compound 600124, 2-Phenyl-cyclopropanecarboxylic acid [1-p-tolyl-eth-(E)-ylidene]-hydrazide] | >700 | < 30 nM | – |
| C/C(=N\NC(=O)C1CC1c1ccccc1)c1ccc(N(C)C)cc1 (stereo not drawn) [Compound 600178, 2-Phenyl-cyclopropanecarboxylic acid [1-(4-dimethylamino-phenyl)-eth-(E)-ylidene]-hydrazide] | >4000 | < 3 nM | – |
| C/C(=N\NC(=O)CCc1ccccc1)c1cccc(N)c1 [Compound 600090, 3-Phenyl-propionic acid [1-(3-amino-phenyl)-eth-(E)-ylidene]-hydrazide] | >18 | 1600 nM | – |
| C/C(=N/NC(=O)C1CC1c1ccccc1)c1ccccc1Cl (stereo not drawn) [Compound 600092, 2-Phenyl-cyclopropanecarboxylic acid [1-(2-chloro-phenyl)-eth-(Z)-ylidene]-hydrazide] | 20 | 200 nM | – |
| Cc1ccc2c(c1Br)C(=NNC(=O)C1CC1c1ccccc1)C(=O)N2 (stereo not drawn) [Compound 600140, 2-Phenyl-cyclopropanecarboxylic acid [4-bromo-5-methyl-2-oxo-1,2-dihydro-indol-(3E)-ylidene]-hydrazide] | >30 | 300 nM | – |
| O=C1Nc2ccccc2/C1=N\NC(=O)C1CC1c1ccccc1 (stereo not drawn) [Compound 600087, 2-Phenyl-cyclopropanecarboxylic acid [2-oxo-1,2-dihydro-indol-(3E)-ylidene]-hydrazide] | >700 | 40 nM | – |
| C/C(=N/NC(=O)C1CC1c1ccccc1)c1ccc(NC(=O)C2CC2)cc1 (stereo not drawn) [Compound 600100, Cyclopropanecarboxylic acid (4-[1-[(2-phenyl-cyclopropanecarbonyl)-hydrazono]-ethyl]-phenyl)-amide] | >20,000 | 2 nM | EC50 [2]: < 400 nM |
| O=C(N/N=C/c1ccccc1)[C@H]1C[C@@H]1c1ccccc1 [Compound 600075, (1S,2S)-2-Phenyl-cyclopropanecarboxylic acid [1-phenyl-meth-(E)-ylidene]-hydrazide] | – | > 30000 nM | – |
| C/C(=N\NC(=O)C1CC1c1ccccc1)c1ccc(NC(=O)c2ccco2)cc1 (stereo not drawn) [Compound 600161, Furan-2-carboxylic acid (4-[1-[(2-phenyl-cyclopropanecarbonyl)-hydrazono]-ethyl]-phenyl)-amide] | >90,000 | 0.5 nM | EC50 [3]: 300 nM; EC50 [4]: 800 nM; Activity vs. LFV T.I. (therapeutic index) [2]: >2000; EC50 [2]: < 20 nM |
| C/C(=N/NC(=O)C1CC1c1ccccc1)c1cccs1 (stereo not drawn) [Compound 600093, 2-Phenyl-cyclopropartecarboxylic acid [1-thiophen-2-yl-eth-(Z)-ylidene]-hydrazide] | 2 | 14000 nM | – |
| C/C(=N\NC(=O)C1CC1c1ccccc1)c1ccc(C2CCCCC2)cc1 (stereo not drawn) [Compound 600181, 2-Phenyl-cyclopropanecarboxylic acid [1-(4-cyclohexyl-phenyl)-eth-(E)-ylidene]-hydrazide] | >400 | 20 nM | – |
| C/C(=N\NC(=O)C1CC1c1ccccc1)c1ccc(NC(=O)c2ccc(Cl)s2)cc1 (stereo not drawn) [Compound 600183, 5-Chloro-thiophene-2-carboxylic acid (4-[1-[(2-phenyl-cyclopropanecarbonyl)-hydrazono]-ethyl]-phenyl)-amide] | >4000 | < 3 nM | – |
| COc1ccc(C(C)=NNC(=O)C2CC2c2ccccc2)cc1 (stereo in doubt) [Compound 600180, 2-Phenyl-cyclopropanecarboxylic acid [1-(4-methoxy-phenyl)-eth-(Z)-ylidene]-hydrazide] | >4000 | < 3 nM | – |
| C/C(=N\NC(=O)C1CC1c1ccccc1)C1CC1 (stereo not drawn) [Compound 600086, 2-Phenyl-cyclopropanecarboxylic acid [1-cyclopropyl-eth-(E)-ylidene]-hydrazide] | >2 | 10000 nM | – |
| C/C(=N\NC(=O)C1CC1c1ccccc1)c1ccccc1O (stereo not drawn) [Compound 600176, 2-Phenyl-cyclopropanecarboxylic acid [1-(2-hydroxy-phenyl)-eth-(E)-ylidene]-hydrazide] | >14 | 800 nM | – |
| CC(=O)Nc1ccc(/C(C)=N/NC(=O)C2CC2c2ccccc2)cc1 (stereo not drawn) [Compound 600184, N-(4-[1-[(2-phenyl-cyclopropanecarbonyl)-hydrazono]-ethyl}-phenyl)-acetamide] | >3000 | 3 nM | – |
| C/C(=N/NC(=O)C1CC1c1ccccc1)c1ccc2c3c(cccc13)CC2 (stereo not drawn) [Compound 600156] | none | 2000 nM | – |
| C/C(=N/NC(=O)C1CC1c1ccc(C(C)(C)C)cc1)c1ccc(F)cc1 (stereo not drawn) [Compound 600197, 2-(4-tert-Butyl-phenyl)-cyclopropanecarboxylic acid [1-(4-fluoro-phenyl)-eth-(Z)-ylidene]-hydrazide] | 650 | 20 nM | – |
| COc1ccc(/C(C)=N/NC(=O)C2CC2c2ccccc2)c(OC)c1 (stereo not drawn) [Compound 600120, 2-Phenyl-cyclopropanecarboxylic acid [1-(2,4-dimethoxy-phenyl)-eth-(E)-ylidene]-hydrazide] | 180 | 120 nM | – |
| COc1ccc(/C(C)=N\NC(=O)C2CC2c2ccc(C(C)(C)C)cc2)cc1[N+](=O)[O-] (stereo not drawn) [Compound 600198, 2-(4-tert-Butyl-phenyl)-cyclopropanecarboxylic acid [1-(4-methoxy-3-nitro-phenyl)-eth-(Z)-ylidene]-hydrazide] | >800 | 14 nM | – |
| C/C(=N/NC(=O)C1CC1c1ccc(C(C)(C)C)cc1)c1cccc(NC(=O)c2ccccc2F)c1 (stereo not drawn) [Compound 600182, N-[3-(1-[[2-(4-tert-Butyl-phenyl)-cyclopropanecarbonyl]-hydrazono]-ethyl)-phenyl]-2-fluoro-benzamide] | >15 | 800 nM | – |
| C/C(=N\NC(=O)C1CC1c1ccccc1)c1ccc(N)cc1 (stereo not drawn) [Compound 408306, 2-Phenyl-cyclopropanecarboxylic acid [1-(4-amino-phenyl)-eth-(E)-ylidene]-hydrazide] | >2000 | 20 nM | Activity vs. LFV T.I. (therapeutic index) [2]: >100; EC50 [2]: 500 nM |
| C/C(=N/NC(=O)C1CC1c1ccccc1)c1ccc(NC(=O)C(F)(F)F)cc1 (stereo not drawn) [Compound 600187, 2,2,2-Trifluoro-N-(4-[1-[(2-phenyl-cyclopropanecarbonyl)-hydrazono]-ethyl]-phenyl)-acetamide] | >4000 | 3 nM | – |
| C/C(=N\NC(=O)C1CC1c1ccccc1)c1cccc(NC(=O)c2ccccc2F)c1 (stereo not drawn) [Compound 600185] | >1.3 | 9000 nM | – |
| O=C1Nc2ccc([N+](=O)[O-])cc2/C1=N/NC(=O)C1CC1c1ccccc1 (stereo not drawn) [Compound 600155, 2-Phenyl-cyclopropanecarboxylic acid [5-nitro-2-oxo-1,2-dihydro-indol-(3Z)-ylidene]-hydrazide] | >40 | 300 nM | – |
